{"source": "ChEMBL document CHEMBL1201862", "about": "“PubChem BioAssay data set” (2004)", "target": "Envelope glycoprotein gp160 (Human immunodeficiency virus 1, UniProt Q6QLK5)", "sequence (Q6QLK5 whole entry, the tested form may be a part)": "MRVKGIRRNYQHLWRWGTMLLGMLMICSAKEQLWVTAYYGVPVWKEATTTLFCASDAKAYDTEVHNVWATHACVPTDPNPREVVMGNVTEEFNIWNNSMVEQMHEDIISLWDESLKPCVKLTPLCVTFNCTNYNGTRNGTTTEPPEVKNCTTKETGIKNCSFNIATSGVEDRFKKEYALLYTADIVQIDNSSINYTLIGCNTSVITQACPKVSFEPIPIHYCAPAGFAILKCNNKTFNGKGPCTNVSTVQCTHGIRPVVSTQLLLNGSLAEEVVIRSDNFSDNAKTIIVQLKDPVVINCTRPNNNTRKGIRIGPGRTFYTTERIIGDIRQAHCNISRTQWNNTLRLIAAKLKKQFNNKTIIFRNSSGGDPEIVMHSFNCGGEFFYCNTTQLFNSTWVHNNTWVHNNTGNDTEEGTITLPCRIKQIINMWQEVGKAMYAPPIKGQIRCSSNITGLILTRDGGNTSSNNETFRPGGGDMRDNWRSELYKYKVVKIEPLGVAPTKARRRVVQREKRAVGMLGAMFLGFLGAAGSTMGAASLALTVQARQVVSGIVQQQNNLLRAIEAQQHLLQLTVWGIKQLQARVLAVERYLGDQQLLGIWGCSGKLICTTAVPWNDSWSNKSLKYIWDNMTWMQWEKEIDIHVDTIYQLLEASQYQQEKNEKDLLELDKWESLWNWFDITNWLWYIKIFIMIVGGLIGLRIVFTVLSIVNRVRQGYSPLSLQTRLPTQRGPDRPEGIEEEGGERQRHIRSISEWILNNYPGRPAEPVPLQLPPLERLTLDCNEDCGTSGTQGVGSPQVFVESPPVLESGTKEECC", "assay": "cell-free HIV fusion peptide-binding blockers – biochemical, uHTS, fluorescence dequenching, […] (AID 1986)", "note": "Activity calls are given as the source filed them. Cut-off read from the data, not from the text of the source: actives have a measured IC50 and inactives only a lower limit."}
{"compound": "Cc1ccc(/C=C2\\SC(=S)N(CCCC(=O)Nc3ccccc3C(=O)O)C2=O)cc1", "values": [{"measurement": "IC50", "result": "27.8 µM (active)"}]}
{"compound": "CS(=O)(=O)C1=NSC2=NC(=O)/C(=C\\c3ccc(OC(=O)c4ccco4)c(Br)c3)C(=N)N21", "values": [{"measurement": "IC50", "result": "16 µM (active)"}]}
